Data on three molecules can be found in US11168287B2, “Anti-adherent compositions and methods of inhibiting the adherence of microbes to a surface” (Kimberly-Clark Worldwide, Inc., priority 2016, dated 2021).

Structures are written as SMILES.

Experiment [1] relates to E. coli ATCC 11229. Put plainly: High Throughput Attachment Test Method (bacterial attachment to MBEC pegs), E. coli. Type of experiment: cell-based, Escherichia coli. As to conditions: pegs coated with compound in 5% glycerin and QS water; Con. Wt. %: #1,4,5,6 = 5; #2,3 = 2; #7,8,9 = 100; 15 min bacterial challenge. As for the experimental part:
(§1) Anti-adherent compositions including anti-adherent agents as discussed herein were tested against bacteria using the High Throughput Attachment Test Method. The High Throughput Attachment Test Method is discussed in further detail below. The anti-adherent compositions including the anti-adherent agents were tested against Gram-positive Staphylococcus aureus, and Gram-negative Escherichia coll. The pH of the compositions for this testing between 3 to 10 pH, or about 4 to about 8 pH.
(§2) This test method specifies the operational parameters required to grow and or prevent the formation of bacterial attachment using a high throughput screening assay. The assay device consists of a plastic lid with ninety-six (96) pegs and a corresponding receiver plate with ninety-six (96) individual wells that have a maximum 200 μL working volume. Biofilm is established on the pegs under static batch conditions (i.e., no flow of nutrients into or out of an individual well).
(§3) 6.1.1 E. coli ATCC 11229 and S. aureus ATCC 6538 are the organisms used in this test.
(§4) 6.1.5 Incubate flask at 35±2° C. and 175±10 rpm for 16 to 18 hours (E. coli and S. aureus). Viable bacterial density should be 10^9 CFU/mL and should be checked by serial dilution and plating.
(§5) 6.1.6 Pipette 10 mL from the incubation flask of E. coli and S. aureus into a 50 mL conical tube and spin down at 5 minutes at 4,000×g. Then remove supernatant and Resuspend in 10 mL sterile PBS. Approximate cell density should be 10^7-10^9 CFU/mL. Vortex the sample for approximately 30 seconds to achieve a homogeneous distribution of cells.
(§6) 6.2.1.1.1 Using a positive displacement pipette aseptically add 200 μL of compounds and control to be tested to a sterile 96-well microplate according to the plate layout of Table 4 below.
(§7) 6.2.1.1.3 Place the MBEC plate lid, peg side down into the 96-well microplate containing the test compound solutions.
(§8) 6.2.1.1.4 Allow the plate to sit at room temperature (25±3° C.) for 2 hours.
(§9) 6.2.1.1.5 Remove the MBEC plate lid and allow the lid to dry at room temperature (25±3° C.) overnight in a laminar flow hood. […]

The subject of experiment [2] is S. aureus ATCC 6538. Put plainly: High Throughput Attachment Test Method (bacterial attachment to MBEC pegs), S. aureus. As to conditions: pegs coated with compound in 5% glycerin and QS water; Con. Wt. %: #1,4,5,6 = 5; #2,3 = 2; #7,8,9 = 100; 15 min bacterial challenge. The experiment is classed as cell-based, Staphylococcus aureus. As for the experimental part:
as §1, §2, §3, §4, §5, §6, §7, §8, §9

The test system of experiment [3] is MS2. Put plainly: High Throughput Test to Quantify the Attachment of Phage to a Surface, RNA virus MS2. To be noted: for MS2 Percent Reduct. (%) / MS2 Log R (PFU/mL) compared to growth controls: pegs coated with compound in 5% glycerin and QS water, Con. Wt. %: #1,4,5,6 = 5, #2,3 = 2, #7,8,9 = 100, 1 hour phage contact; for MS2 Log R (PFU/mL) compared to growth controls: positive = inhibits attachment; for Effect against RNA viruses (MS2), in words: positive logarithmic reduction at statistically significant level = anti-adherent. As for the experimental part: (§10) The anti-adherent compositions that inhibit the attachment of RNA and/or DNA viruses to a surface including compounds serving as anti-adherent agents against RNA and DNA viruses were tested against RNA and DNA viruses via the High Throughput Test to Quantify the Attachment of Phage to a Surface, as discussed in detail below. Tables 2 and 3 below show the variety of compounds that were tested as agents in a composition, as well as the results that related to the percent reduction in viruses and the Logarithmic Reduction compared to growth controls. As will be discussed in further detail below in the discussion regarding the High Throughput Test to Quantify the Attachment of Phage to a Surface, a positive logarithmic reduction in viruses equates to anti-adherent properties (e.g., inhibits attachment), and a negative logarithmic reduction in viruses equates to adherent properties (e.g., increases attachment).
The RNA virus that the compositions were tested against for attachment behaviors was MS2. Bacteriophage are commonly utilized as surrogates of mammalian viruses in both medical and virology applications. MS2 phage is commonly utilized as a viral surrogate because of its size, morphology, environmental stability, non-human infectivity, and the ability for use in high throughput assays. Additionally, MS2 is commonly used as a surrogate to study the spread of human Norovirus (See, Tung-Thompson, et al, PLoS One, 2015, 10(8): e0134277, Dawson D J, et al, J App Micro, 2005, 98: 203-209, Jones, et al, J Hosp Infect, 1991, 17:279-85). The use of MS2 phage in hand sanitizer studies makes it an ideal surrogate to study the interaction of personal care products and viral attachment. It is believed that compositions including the adherent agents noted above would act in a substantially similar behavior to other RNA viruses as they did against MS2.
(§11) 1.5 Phage (MS2 and PhiX 174) Enumeration: • 1.5.1 Phage is prepared for use from the stock by diluting 1:1 in BPB. • 1.5.2 Spot Plate Method: • 1.5.2.1 A cell dilution of ˜10^6 CFU/mL of E. coli (E. coli K12 is used for MS2 phage and E. coli C is used for PhiX 174) is prepared from the prepared washed broth culture by diluting in sterile BPB. • 1.5.2.2 An inoculum check is performed on the bacterial dilution in triplicate. • 1.5.2.3 In a 96 well plate, columns 1-12 are filled with 180 μL of the 10^6 CFU/ml E. coli suspension in BPB • 1.5.2.4 20 μL of the samples to be diluted is added in column 1. • 1.5.2.5 10-fold (10×Dilution) in BPB is performed from 10^1-10^12 by moving 20 μL from column 1 to column 2 and mixing. This is repeated, moving down the columns until column 12. • 1.5.2.6 20 μL (or 10 if agar permits) is spot plated on a large labelled OSA plate (spot plate every second column to avoid cross merging of spot plated phages. • 1.5.2.7 Plates are inverted & incubated for 24 h at 37° C. • 1.5.2.8 After 24 h the number of PFU is counted.
(§12) • 1.6.1 Preparation of compounds and coating compounds onto MBEC plate lid • 1.6.2 Using a positive displacement pipette aseptically add 200 μL of compounds to be tested to a sterile 96-well microplate according to the plate layout described below. • 1.6.3 Add 200 μL of each code to the appropriate well for sterility controls. • 1.6.4 Place the MBEC plate lid, peg side down into the 96-well microplate containing the test compound solutions. • 1.6.5 Allow the plate to sit at room temperature (25±3° C.) for 2 hrs. • 1.6.6 Remove the MBEC plate lid and allow the lid to dry at room temperature (25±3° C.) overnight in a laminar flow hood by spacing the MBEC plate lid from the MBEC plate trough with two 10 μL disposable loops. […]

Experiment [4] has as its system Phi X 174. Put plainly: High Throughput Test to Quantify the Attachment of Phage to a Surface, DNA virus Phi X 174. Also on record: species or system Phi X 174 bacteriophage. As to conditions: for Phi X 174 Percent Reduct. (%) / Phi X 174 Log. R (PFU/mL) compared to growth controls: pegs coated with compound in 5% glycerin and QS water, Con. Wt. %: #1,4,5,6 = 5, #2,3 = 2, #7,8,9 = 100, 1 hour phage contact; for Phi X 174 Log. R (PFU/mL) compared to growth controls: positive = inhibits attachment; for Effect against DNA viruses (Phi X 174), in words: positive logarithmic reduction at statistically significant level = anti-adherent. As for the experimental part:
as §10
The DNA virus that the compositions were tested against for attachment behaviors was Phi X 174. Bacteriophage are commonly utilized as surrogates of mammalian viruses in both medical and virology applications. Phi X 174 is commonly utilized as a viral surrogate because of its size, morphology, environmental stability, and non-human infectivity, and the ability for use in high throughput assays. Phi X174 has been previously been used to study barrier efficacy, making it an ideal surrogate to study attachment to a surface (See, Haman and Nelson, Am J Infect Control, 1993, 21:289-96, O'Connell, et al, Clin Microb Infect, 2004, 10:322-6, ASTM F1671/F1671M-13, Standard Test Method for Resistance of Materials Used in Protective Clothing to Penetration by Blood-Borne Pathogens Using Phi X174 Bacteriophage Penetration as a Test System). Thus, it is well accepted by those of ordinary skill in the art that Phi X 174 serves as a surrogate for other DNA viruses, and the compositions including the adherent agents noted above would act in a substantially similar behavior to other DNA viruses as they did against Phi X 174.
as §11, §12

As to `CCCCC(CC)COC(=O)c1ccccc1O` (stereo not shown) [Compound 8, Ethylhexyl Salicylate], in experiment [1], the “Ratio of E. coli growth on treated pegs to untreated pegs (%)” value (from here on “Ratio of E. coli growth … (%)”) was determined as 111.1%. The “Ratio of S. aureus growth on treated pegs to untreated pegs (%)” value (from here on “Ratio of S. aureus growth … (%)”) in experiment [2] worked out at 75.4%. Moreover, in experiment [3], the “MS2 Percent Reduct. (%)” value is listed as 85.40% and the “MS2 Log R (PFU/mL) compared to growth controls” value is given as 0.84 PFU/mL. In experiment [4], the “Phi X 174 Percent Reduct. (%)” value is given as 91.45% and the “Phi X 174 Log. R (PFU/mL) compared to growth controls” value is on record as 1.07 PFU/mL.

As for `CCCCC(CC)COC(=O)C(C#N)=C(c1ccccc1)c1ccccc1` (stereo not shown) [Compound 9, Octocrylene], the “Ratio of E. coli growth … (%)” value in experiment [1] is given as 114.1%. Further, the “Ratio of S. aureus growth … (%)” value in experiment [2] is recorded as 81.9%. For the same molecule, in experiment [3], the “MS2 Percent Reduct. (%)” value is −30.27%; the “MS2 Log R (PFU/mL) compared to growth controls” value is recorded as −0.11 PFU/mL; the “Effect against RNA viruses (MS2), in words” value is “neutral”. In experiment [4], the “Phi X 174 Percent Reduct. (%)” value is 93.44%; the “Phi X 174 Log. R (PFU/mL) compared to growth controls” value worked out at 1.18 PFU/mL; the “Effect against DNA viruses (Phi X 174), in words” value was “anti-adherent”.

As to `CCCCCCCCCCCCCCCCCC(=O)OCC(CC)CCCC` (stereo not shown) [Compound 7, Ethylhexyl Stearate], the “Ratio of E. coli growth … (%)” value in experiment [1] is listed as 48.4%. For the same molecule, the “Ratio of S. aureus growth … (%)” value in experiment [2] is listed as 68.6%. Besides, in experiment [3], the “MS2 Percent Reduct. (%)” value is listed as 87.46%; the “MS2 Log R (PFU/mL) compared to growth controls” value worked out at 0.90 PFU/mL; the “Effect against RNA viruses (MS2), in words” value is “anti-adherent”. Besides, in experiment [4], the “Phi X 174 Percent Reduct. (%)” value came to 98.58%; the “Phi X 174 Log. R (PFU/mL) compared to growth controls” value worked out at 1.85 PFU/mL; the “Effect against DNA viruses (Phi X 174), in words” value is on record as “anti-adherent”.
